≈ marks a conversion by molar mass, not a printed value. Like-named read-outs stand apart in the source and are kept apart here.
Columns and labels:
Assay in all cases: MIC, microbroth dilution
Assay type in all cases: cell-based
[1] = tested on: Mycobacterium smegmatis ATCC700084; conditions: Mycolicibacterium smegmatis, ATCC700084; rifS; Middlebrook Broth plus ADC Enrichment, 37° C.; read-out: MIC
Description: (§1) Representative compounds were assayed for antimicrobial activity as follows: Minimum Inhibitory Concentrations (“MICs”) were determined by the microbroth dilution method as per NCCLS guidelines (National Committee for Clinical Laboratory Standards, 2000), except that all growth incubations were conducted at 37° C. Bacterial cultures were tested in the following bacteriological media: S. aureus, S. epidermidis, and E. coli in Cation-Adjusted Mueller-Hinton Broth, S. pneumoniae in THY Broth supplemented with 1 mg/mL catalase under 5% CO2 atmosphere, S. pyogenes in THY Broth, E. faecalis in BHI Broth, H. influenzae in BHI Broth supplemented with 0.75 μL of 1 mg/mL NAD and 150 μL of 1 mg/ml hematin per 5 mL, and M smegmatis in Middlebrook Broth plus ADC Enrichment.

[2] = tested on: Staphylococcus aureus ATCC29213
Description: as §1

[3] = tested on: Enterococcus faecalis ATCC29212
Description: as §1

[4] = rifS, Cation-Adjusted Mueller-Hinton Broth, 37° C., read-out: MIC
[5] = rifS, BHI Broth, 37° C., read-out: MIC

Structure (SMILES) | MIC [1] | MIC [2, 4] | MIC [3, 5] | MIC [2] | MIC [3]
CO[C@H]1/C=C/O[C@@]2(C)Oc3c(C)c(O)c4c(c3C2=O)C(=O)C(N2CCOCC2)=C(NC(=O)/C(C)=C\C=C\[C@H](C)[C@@H]2OC(C)(C)O[C@@H]([C@@H](C)[C@H](OC(=O)n3ccnc3)[C@@H]1C)[C@@H]2C)C4=O [Example 4] | 0.063 to 31 µg/mL | 0.002 to 1.95 µg/mL (≈ 0.00229 to 2.23 µM) | 0.25 to 62 µg/mL (≈ 0.286 to 71 µM) |  | 
CO[C@H]1/C=C/O[C@@]2(C)Oc3c(C)c(O)c4c(c3C2=O)C(=O)C(N2CCOCC2)=C(NC(=O)/C(C)=C\C=C\[C@H](C)[C@@H]2OC(C)(C)O[C@@H]([C@@H](C)[C@H](OC(=O)n3cc[n+](Cc5ccccc5)c3)[C@@H]1C)[C@@H]2C)C4=O [Example 5, 1-Benzyl-3-(25-O-desacetyl-(carbonyl-cyclic-21,23-(1-methylethylideneacetal) 3-morpholinorifamycin S))-3H-imidazol-1-ium] | 0.063 to 31 µg/mL | 0.002 to 1.95 µg/mL | 0.25 to 62 µg/mL |  | 
CO[C@H]1/C=C/O[C@@]2(C)Oc3c(C)c(O)c4c(c3C2=O)C(=O)C(N2CCOCC2)=C(NC(=O)/C(C)=C\C=C\[C@H](C)[C@H](O)[C@@H](C)[C@@H](O)[C@@H](C)[C@H](OC(=O)N2CCN(C)CC2)[C@@H]1C)C4=O [Example 6, 25-O-Desacetyl-(1-carbonyl-4-methyl-piperazine) 3-morpholino rifamycin S] | 0.063 to 31 µg/mL | 0.002 to 1.95 µg/mL (≈ 0.00231 to 2.25 µM) | 0.25 to 62 µg/mL (≈ 0.289 to 71.7 µM) |  | 
CO[C@H]1/C=C/O[C@@]2(C)Oc3c(C)c(O)c4c(c3C2=O)C(=O)C(N2CCOCC2)=C(NC(=O)/C(C)=C\C=C\[C@H](C)[C@H](O)[C@@H](C)[C@@H](O)[C@@H](C)[C@H](OC(=O)NCC(C)C)[C@@H]1C)C4=O [Example 7, 25-O-Desacetyl-(1-carbonyl-isobutylamino) 3-morpholino rifamycin S] | 0.063 to 31 µg/mL | 0.002 to 1.95 µg/mL (≈ 0.00239 to 2.33 µM) | 0.25 to 62 µg/mL (≈ 0.298 to 74 µM) |  | 
C=CCNC(=O)O[C@H]1[C@H](C)[C@H](O)[C@H](C)[C@@H](O)[C@@H](C)/C=C/C=C(/C)C(=O)NC2=C(N3CCOCC3)C(=O)c3c(c(O)c(C)c4c3C(=O)[C@@](C)(O/C=C/[C@H](OC)[C@H]1C)O4)C2=O [Example 8, 25-O-Desacetyl-(carbonyl-allylamino) 3-morpholino rifamycin S] | 0.063 to 31 µg/mL | 0.002 to 1.95 µg/mL (≈ 0.00243 to 2.37 µM) | 0.25 to 62 µg/mL (≈ 0.304 to 75.4 µM) |  | 
CO[C@H]1/C=C/O[C@@]2(C)Oc3c(C)c(O)c4c(c3C2=O)C(=O)C(N2CCOCC2)=C(NC(=O)/C(C)=C\C=C\[C@H](C)[C@H](O)[C@@H](C)[C@@H](O)[C@@H](C)[C@H](OC(=O)NCCN2CCN(C)CC2)[C@@H]1C)C4=O [Example 9, 25-O-Desacetyl-(1-carbonyl-2-(4-methyl-piperazin-1-yl)-ethylamine) 3-morpholino rifamycin S] | 0.063 to 31 µg/mL | 0.002 to 1.95 µg/mL (≈ 0.0022 to 2.15 µM) | 0.25 to 62 µg/mL (≈ 0.275 to 68.3 µM) |  | 
CCN(CC)C(=O)O[C@H]1[C@H](C)[C@H](O)[C@H](C)[C@@H](O)[C@@H](C)/C=C/C=C(/C)C(=O)NC2=C(N3CCOCC3)C(=O)c3c(c(O)c(C)c4c3C(=O)[C@@](C)(O/C=C/[C@H](OC)[C@H]1C)O4)C2=O [Example 10, 25-O-Desacetyl-(1-carbonyl-2-diethylamine) 3-morpholino rifamycin S] | 0.063 to 31 µg/mL | 0.002 to 1.95 µg/mL (≈ 0.00239 to 2.33 µM) | 0.25 to 62 µg/mL (≈ 0.298 to 74 µM) |  | 
CO[C@H]1/C=C/O[C@@]2(C)Oc3c(C)c(O)c4c(c3C2=O)C(=O)C(N2CCOCC2)=C(NC(=O)/C(C)=C\C=C\[C@H](C)[C@H](O)[C@@H](C)[C@@H](O)[C@@H](C)[C@H](OC(=O)NCCCn2ccnc2)[C@@H]1C)C4=O [Example 11, 25-O-Desacetyl-(1-carbonyl-3-imidazol-1-yl-propylamine) 3-morpholino rifamycin S] | 0.063 to 31 µg/mL | 0.002 to 1.95 µg/mL (≈ 0.00225 to 2.19 µM) | 0.25 to 62 µg/mL (≈ 0.281 to 69.7 µM) |  | 
CO[C@H]1/C=C/O[C@@]2(C)Oc3c(C)c(O)c4c(c3C2=O)C(=O)C(N2CCOCC2)=C(NC(=O)/C(C)=C\C=C\[C@H](C)[C@H](O)[C@@H](C)[C@@H](O)[C@@H](C)[C@H](OC(=O)N2CCN(c3ccc(F)cc3)CC2)[C@@H]1C)C4=O [Example 12, 25-O-Desacetyl-(1-carbonyl-1-(4-fluorophenyl)-piperazine) 3-morpholino rifamycin S] | 0.063 to 31 µg/mL | 0.002 to 1.95 µg/mL (≈ 0.00212 to 2.06 µM) | 0.25 to 62 µg/mL (≈ 0.265 to 65.6 µM) |  | 
CO[C@H]1/C=C/O[C@@]2(C)Oc3c(C)c(O)c4c(c3C2=O)C(=O)C(N2CCOCC2)=C(NC(=O)/C(C)=C\C=C\[C@H](C)[C@H](O)[C@@H](C)[C@@H](O)[C@@H](C)[C@H](OC(=O)NCc2cccc(C(F)(F)F)c2)[C@@H]1C)C4=O [Example 13, 25-O-Desacetyl-(carbonyl-1-(3-trifluoromethylbenzylamino)) 3-morpholino rifamycin S] | 0.063 to 31 µg/mL | 0.002 to 1.95 µg/mL (≈ 0.00213 to 2.07 µM) | 0.25 to 62 µg/mL (≈ 0.266 to 66 µM) |  | 
CO[C@H]1/C=C/O[C@@]2(C)Oc3c(C)c(O)c4c(c3C2=O)C(=O)C(N2CCOCC2)=C(NC(=O)/C(C)=C\C=C\[C@H](C)[C@H](O)[C@@H](C)[C@@H](O)[C@@H](C)[C@H](OC(=O)N2CCCC2)[C@@H]1C)C4=O [Example 14, 25-O-Desacetyl-(carbonyl-1-pyrrolidino) 3-morpholino rifamycin S] | 0.063 to 31 µg/mL | 0.002 to 1.95 µg/mL (≈ 0.00239 to 2.33 µM) | 0.25 to 62 µg/mL (≈ 0.299 to 74.2 µM) |  | 
CO[C@H]1/C=C/O[C@@]2(C)Oc3c(C)c(O)c4c(c3C2=O)C(=O)C(N2CCOCC2)=C(NC(=O)/C(C)=C\C=C\[C@H](C)[C@H](O)[C@@H](C)[C@@H](O)[C@@H](C)[C@H](OC(=O)NCc2ccccc2)[C@@H]1C)C4=O [Example 15, 25-O-Desacetyl (carbonyl-benzyl) 3-morpholino rifamycin S] | 0.063 to 31 µg/mL | 0.002 to 1.95 µg/mL (≈ 0.00229 to 2.24 µM) | 0.25 to 62 µg/mL (≈ 0.287 to 71.1 µM) |  | 
CO[C@H]1/C=C/O[C@@]2(C)Oc3c(C)c(O)c4c(c3C2=O)C(=O)C(N2CCOCC2)=C(NC(=O)/C(C)=C\C=C\[C@H](C)[C@H](O)[C@@H](C)[C@@H](O)[C@@H](C)[C@H](OC(=O)N2CCN(c3cc5c(cc3F)c(=O)c(C(=O)O)cn5C3CC3)CC2)[C@@H]1C)C4=O [Example 16, 25-O-Desacetyl-(4-carbonyl-1-cyclopropyl-6-fluoro-4-oxo-7-piperazin-1-yl-1,4-dihydro-quinoline-3-carboxylic acid) 3-morpholino rifamycin S] | 0.063 to 31 µg/mL | 0.002 to 1.95 µg/mL (≈ 0.00182 to 1.78 µM) | 0.25 to 62 µg/mL (≈ 0.228 to 56.6 µM) |  | 
CO[C@H]1/C=C/O[C@@]2(C)Oc3c(C)c(O)c4c(c3C2=O)C(=O)C(N2CCOCC2)=C(NC(=O)/C(C)=C\C=C\[C@H](C)[C@H](O)[C@@H](C)[C@@H](O)[C@@H](C)[C@H](OC(=O)N2CCN(c3c(F)cc5c(=O)c(C(=O)O)cn(C6CC6)c5c3Cl)CC2)[C@@H]1C)C4=O [Example 17, 25-O-Desacetyl-(8-chloro-1-cyclopropyl-7-[4-(1-carbonyl)-piperazin-1-yl]-6-fluoro-4-oxo-1,4-dihydro-quinoline-3-carboxylic acid) 3-morpholino rifamycin S] | 0.063 to 31 µg/mL | 0.002 to 1.95 µg/mL (≈ 0.00177 to 1.72 µM) | 0.25 to 62 µg/mL (≈ 0.221 to 54.8 µM) |  | 
CO[C@H]1/C=C/O[C@@]2(C)Oc3c(C)c(O)c4c(c3C2=O)C(=O)C(N2CCOCC2)=C(NC(=O)/C(C)=C\C=C\[C@H](C)[C@H](O)[C@@H](C)[C@@H](O)[C@@H](C)[C@H](OC(=O)NCCc2ccccn2)[C@@H]1C)C4=O [Example 18, 25-O-Desacetyl-(1-carbonyl-(2-pyridin-2-yl-ethylamine)) 3-morpholino rifamycin S] | 0.063 to 31 µg/mL | 0.002 to 1.95 µg/mL (≈ 0.00225 to 2.2 µM) | 0.25 to 62 µg/mL (≈ 0.282 to 69.9 µM) |  | 
CO[C@H]1/C=C/O[C@@]2(C)Oc3c(C)c(O)c4c(c3C2=O)C(=O)C(N2CCOCC2)=C(NC(=O)/C(C)=C\C=C\[C@H](C)[C@H](O)[C@@H](C)[C@@H](O)[C@@H](C)[C@H](OC(=O)NCCc2cccs2)[C@@H]1C)C4=O [Example 19, 25-O-Desacetyl-(1-carbonyl-2-thiophen-2-yl-ethylamine) 3-morpholino rifamycin S] | 0.063 to 31 µg/mL | 0.002 to 1.95 µg/mL (≈ 0.00224 to 2.19 µM) | 0.25 to 62 µg/mL (≈ 0.28 to 69.5 µM) |  | 
CO[C@H]1/C=C/O[C@@]2(C)Oc3c(C)c(O)c4c(c3C2=O)C(=O)C(N2CCOCC2)=C(NC(=O)/C(C)=C\C=C\[C@H](C)[C@H](O)[C@@H](C)[C@@H](O)[C@@H](C)[C@H](OC(=O)NCCO)[C@@H]1C)C4=O [Example 20, 25-O-Desacetyl-(1-carbonyl-2-aminoethanol) 3-morpholino rifamycin S] | 0.063 to 31 µg/mL | 0.002 to 1.95 µg/mL (≈ 0.00242 to 2.36 µM) | 0.25 to 62 µg/mL (≈ 0.303 to 75.1 µM) |  | 
CO[C@H]1/C=C/O[C@@]2(C)Oc3c(C)c(O)c4c(c3C2=O)C(=O)C(N2CCOCC2)=C(NC(=O)/C(C)=C\C=C\[C@H](C)[C@H](O)[C@@H](C)[C@@H](O)[C@@H](C)[C@H](OC(=O)NCc2cccc3ccccc23)[C@@H]1C)C4=O [Example 23, 25-O-Desacetyl-(carbonyl-naphthalen-1-ylmethyl-amino) 3-morpholino rifamycin S] |  |  |  | 0.002 to 1.95 µg/mL (≈ 0.00217 to 2.11 µM) | 0.25 to 62 µg/mL (≈ 0.271 to 67.2 µM)
COc1cncc(NC(=O)c2ccc(N3CCNCC3)c(C(F)(F)F)c2)c1 [Example 52, N-(5-Methoxy-pyridin-3-yl)-4-piperazin-1-yl-3-trifluoromethyl-benzamide] |  |  |  | 0.002 to 1.95 µg/mL (≈ 0.00526 to 5.13 µM) | 0.25 to 62 µg/mL (≈ 0.657 to 163 µM)
CO[C@H]1/C=C/O[C@@]2(C)Oc3c(C)c(O)c4c(c3C2=O)C(=O)C(N2CCOCC2)=C(NC(=O)/C(C)=C\C=C\[C@H](C)[C@@H]2OC(C)(C)O[C@@H]([C@@H](C)[C@H](OC(=O)N3CCC(=O)CC3)[C@@H]1C)[C@@H]2C)C4=O [Example 54, 25-O-Desacetyl-(carbonyl-N-(4-piperidone)) cyclic-21,23-(1-methylethylideneacetal) 3-morpholino rifamycin S] |  |  |  | 0.002 to 1.95 µg/mL (≈ 0.00221 to 2.16 µM) | 0.25 to 62 µg/mL (≈ 0.277 to 68.6 µM)
CO[C@H]1/C=C/O[C@@]2(C)Oc3c(C)c(O)c4c(c3C2=O)C(=O)C(N2CCOCC2)=C(NC(=O)/C(C)=C\C=C\[C@H](C)[C@@H]2OC(C)(C)O[C@@H]([C@@H](C)[C@H](OC(=O)N3CCC(=O)C3)[C@@H]1C)[C@@H]2C)C4=O [Example 61] |  |  |  | 0.002 to 1.95 µg/mL (≈ 0.00225 to 2.19 µM) | 0.25 to 62 µg/mL (≈ 0.281 to 69.7 µM)
